Here are results for five compounds from patent US20050020692A1, “Treatment of heaves” (priority 2003, published 2005).

Data set [1] has as its system isolated human leukocytes (buffy coat). Put plainly: A23187-stimulated histamine release from isolated human leukocytes. Format: cell-based. The following applies: for inhibition of release of the marker inflammatory mediator histamine: A23187 5 μM, 20 min/37° C., 4×10^−4 M to 10^−6 M. How it is done:
In this study, histamine was the marker compound for inflammatory mediators that are released from pro-inflammatory cells. The inhibition of stimulated histamine release from isolated human leukocytes (buffy coat) by test articles was studied. The method is a modification of the methodology described by Nolte et al. (1988). Leukocytes were obtained from healthy volunteers and inflammatory mediator release was induced by incubation (20 min/37° C.) with the Ca-ionophore A23187 (5 μM) in the presence or absence of a test article. Histamine was analyzed by enzyme-immuno assays (E.I.A.), using commercially available kits and a microplate reader (MRX, Dynatech). The test articles were tested in each assay at five concentrations ranging from 4×10^−4 M to 10^−6 M, in duplicate. In the same experiment, a reference compound was tested in duplicate at eight concentrations to obtain an inhibition curve to validate the experiment (not shown here). Results: […]

Data set [2] concerns equine bronchial smooth muscle. Put plainly: Carbachol-induced contractions of equine bronchial smooth muscle (hyperreactivity). More on the design: species or system horse. The following applies: 37° C. As for the experimental part: In this study, segments of equine bronchial smooth muscle are mounted on special holders and immersed in a physiologic solution containing glucose and aerated with 95% O2 and 5% CO2 at 37° C. Isometric tension is measured with force transducers and registered electronically. The effects of R-, RS- and S-albuterol on carbachol-induced contractions are studied.

The test system of data set [3] is adrenergic β-2 receptors. In words: cAMP production in human PC3 cells. The following applies: PC-3, read-out: EC50 for cAMP production.
The subject of data set [4] is pro-inflammatory cells. The following applies: cited from earlier work.
Data set [5] has as its system isolated guinea pig tracheas. Put plainly: Inhibition of airway smooth muscle contractions, isolated guinea pig tracheas. The following applies: Cavia porcellus, read-out: pD2 (converted). How it is done: The following study was performed in vitro, using isolated guinea pig tracheas. The airway smooth muscle tissues were contracted by carbachol or ovalbumin or histamine. […] Results: pD2 Values of the Enantiomers of Albuterol

In data set [6] the test system is Antigen-specific T-cell lines. Put plainly: Antigen-specific T-cell lines: proliferation, apoptosis, cytokine secretion. It counts as cell-based, human. As for the experimental part:
Parallel lines were generated in the presence of propranolol. Cells were evaluated for proliferation, apoptosis, and cytokine secretion.

Data set [7] is classed as physicochemical. An excerpt:
The chemical and optical purities of all batches used for biological studies have been >98%. […] No polymorphs have been detected.

Data set [8] deals with M-form phenolsulfotransferase (M-PST). Put plainly: Sulfotransferase activity in horse liver cytosol / intestinal mucosa. It counts as in vitro ADME. As for the experimental part: Method: The livers from recently slaughtered horses are homogenized and the cytosol is prepared by differential centrifugation. The protein concentration of the cytosolic preparation is determined by the Lowry method (Lowry O. H. et al.: Protein measurement with the foline phenol reagent. J. Biol. Chem. 1951, 193: 265-275). […] Cytosol from the livers is incubated at 15 °C. After removal of unmetabolized beta-2 agonist with ethyl acetate, free drug is released from the conjugate using sulfatase. The concentrations of beta-2 agonist enantiomers are analyzed by chiral HPLC assay.
Results from tests with intestinal mucosa yielded the same surprising results.

For data set [9] the following is noted: horse.
The mark [10] stands for this setting: contractile stimulus Carbachol (10^-6 M).
[11] abbreviates: contractile stimulus Histamine (10^-5 M).
Setting [12] is: contractile stimulus Ovalbumin (10-5 g/ml).

Structures can show the parent of a compound that is named as a salt. Where two headings read alike, the source gives them in different places.

Take `CC(C)(C)NC[C@@H](O)c1ccc(O)c(CO)c1` [S(+)-albuterol]: in data set [1], the “inhibition of release of the marker inflammatory mediator histamine” value is reported as “Neither R(−)-albuterol nor S(+)-albuterol inhibited the release”. The “increase of release of histamine from leukocytes” value in data set [1] (at concentrations of 10 μM and higher) was “significantly and dose-dependently increased the release”. In addition, in data set [2], the “effect on equine bronchial smooth muscle” value is reported as “causing bronchial hyperreactivity”. In addition, the EC50 in data set [3] is 14000 nM; in data set [5] (setting [10]) it was 79400 nM; in data set [5] (setting [11]), 5010 nM; in data set [5] (setting [12]) it was 31600 nM. In addition, the “facilitation of release of inflammatory mediators” value in [4] is on record as “facilitating the release”. In [6] (S(+)-albuterol alone), the “influence on T-cell proliferation” value was “No influence was observed”.

Turning to `CC(C)(C)NC[C@H](O)c1ccc(O)c(CO)c1.Cl` [R(−)-albuterol hydrochloride], the solubility in water entry in data set [7] was “readily soluble”.

In the case of `CC(C)(C)NC[C@H](O)c1ccc(O)c(CO)c1` [R(−)-albuterol, (R)-[…]^1-[[(1,1-dimethylethyl)amino]methyl]-4-hydroxy-1,3-benzene-dimethanol, sulfate (2:1) (salt)], the “inhibition of release of the marker inflammatory mediator histamine” value in data set [1] is given as “Neither R(−)-albuterol nor S(+)-albuterol inhibited the release”. In data set [2], the “effect on equine bronchial smooth muscle” value is “causing bronchorelaxation”. Moreover, the EC50 was 100 nM in [3], 79.4 nM in data set [5] (setting [10]), 20 nM in [5] (setting [11]) and 5.01 nM in data set [5] (setting [12]). In addition, the “intestinal or hepatic metabolism by M-form phenolsulfotransferase” value in data set [8] is “not to undergo intestinal or hepatic metabolism”. Moreover, in [9], the “inversion to S-albuterol” value is reported as “no such inversion takes place”. Besides, the T-cell proliferation is listed as 61.1%±9.0% in data set [6] (10(−7) mol/L, % of control) and 77.0%±9.7% in data set [6] (10(−8) mol/L). Besides, in data set [6] (10(−8) mol/L), the “IL-2 and IFN-gamma production” value is “inhibited”.

Regarding `CC(C)(C)NCC(O)c1ccc(O)c(CO)c1` (racemic) [RS-albuterol], in [3], the EC50 is 207 nM. The influence on proliferation entry in [6] is listed as “minimal influences”. The cytokine production entry in data set [6] (10(−8) mol/L each isomer) was “no influence”.

In the case of `CC(C)(C)NC[C@H](O)c1ccc(O)c(CO)c1.CC(C)(C)NC[C@H](O)c1ccc(O)c(CO)c1.O=S(=O)(O)O` [R(−)-albuterol sulfate], in data set [7], the solubility in water result is “readily soluble”.
